Where two headings read alike, the source gives them in different places.
What was measured:
[1] = 10 μM
Protocol: 50 μL aliquots of positive controls and test compounds spiked into rat or human plasma (n=2) were added to a pre-warmed plate (37° C.) and shaken at 50 rpm. At each respective time point, the reaction was stopped by adding 500 μL of acetonitrile containing internal standards (100 nM aprozolam, 200 nM caffeine, 100 nM tolbutamide). All samples were vortexed for 10 minutes, followed by centrifugation at 3,220 g for 30 minutes to precipitate proteins. 100 μL of the supernatant is transferred to a new plate. The supernatant will be diluted with ultrapure water according to the LC-MS signal response and peak shape.

[2] = 10 μM; remark: listed apart in the source
[3] = Plasma Stability Assay of Example A3, mouse plasma; details: 5 μM, 37° C., % of prodrug compound remaining
[4] = Plasma Stability Assay of Example A3, human plasma; details: 5 μM, 37° C., % of prodrug compound remaining

CCCCCC(C)C(=O)OC1=C[C@@H]2N(C)CC[C@]2(c2ccc(OC)c(OC)c2)CC1 (stereo partly drawn) [Compound 400, (3aS,7aS)-3a-(3,4-dimethoxyphenyl)-1-methyl-2,3,3a,4,5,7a-hexahydro-1H-indol-6-yl2-methylheptanoate]
Prodrug (%) remaining, Human Plasma ([1]; 0 h): 100.0% | Prodrug (%) remaining, Human Plasma ([1]; 10 min): 34.7% | Prodrug (%) remaining, Human Plasma ([1]; 0.5 h): 11.6% | Prodrug (%) remaining, Human Plasma ([1]; 1 h): 5.2% | Prodrug (%) remaining, Human Plasma ([1]; 2 h): 2.3% | Prodrug (%) remaining, Human Plasma ([1]; 4 h): 1.9% | Prodrug (%) remaining, Rat Plasma ([2]; 0 h): 100.0% | Prodrug (%) remaining, Rat Plasma ([2]; 10 min): 12.6% | Prodrug (%) remaining, Rat Plasma ([2]; 0.5 h): 0.6% | Prodrug (%) remaining, Rat Plasma ([2]; 1 h): 0.1% | Prodrug (%) remaining, Rat Plasma ([2]; 2 h): 0.1% | Prodrug (%) remaining, Rat Plasma ([2]; 4 h): 0.0%

COCCOCCC(=O)OC1=C[C@@H]2N(C)CC[C@]2(c2ccc(OC)c(OC)c2)CC1 [Compound 405, (3aS,7aS)-3a-(3,4-dimethoxyphenyl)-1-methyl-2,3,3a,4,5,7a-hexahydro-1H-indol-6-yl3-(2-methoxyethoxy)propanoate]
Prodrug (%) remaining, Human Plasma ([1]; 0 h): 100.0% | Prodrug (%) remaining, Human Plasma ([1]; 10 min): >99% | Prodrug (%) remaining, Human Plasma ([1]; 0.5 h): 95.0% | Prodrug (%) remaining, Human Plasma ([1]; 1 h): 87.0% | Prodrug (%) remaining, Human Plasma ([1]; 2 h): 65.7% | Prodrug (%) remaining, Human Plasma ([1]; 4 h): 46.7% | Prodrug (%) remaining, Rat Plasma ([2]; 0 h): 100.0% | Prodrug (%) remaining, Rat Plasma ([2]; 10 min): 0.1% | Prodrug (%) remaining, Rat Plasma ([2]; 0.5 h): 0.0% | Prodrug (%) remaining, Rat Plasma ([2]; 1 h): 0.1% | Prodrug (%) remaining, Rat Plasma ([2]; 2 h): 0.0% | Prodrug (%) remaining, Rat Plasma ([2]; 4 h): 0.0%

CCCC(C)C(=O)OC1=C[C@@H]2N(C)CC[C@]2(c2ccc(OC)c(OC)c2)CC1 (stereo partly drawn) [Compound 402, (3aS,7aS)-3a-(3,4-dimethoxyphenyl)-1-methyl-2,3,3a,4,5,7a-hexahydro-1H-indol-6-yl2-methylpentanoate]
Prodrug (%) remaining, Human Plasma ([1]; 0 h): 100.0% | Prodrug (%) remaining, Human Plasma ([1]; 10 min): 11.3% | Prodrug (%) remaining, Human Plasma ([1]; 0.5 h): 2.9% | Prodrug (%) remaining, Human Plasma ([1]; 1 h): 2.1% | Prodrug (%) remaining, Human Plasma ([1]; 2 h): 1.6% | Prodrug (%) remaining, Human Plasma ([1]; 4 h): 1.1% | Prodrug (%) remaining, Rat Plasma ([2]; 0 h): 100.0% | Prodrug (%) remaining, Rat Plasma ([2]; 10 min): 3.5% | Prodrug (%) remaining, Rat Plasma ([2]; 0.5 h): 0.1% | Prodrug (%) remaining, Rat Plasma ([2]; 1 h): 0.0% | Prodrug (%) remaining, Rat Plasma ([2]; 2 h): 0.0% | Prodrug (%) remaining, Rat Plasma ([2]; 4 h): 0.0%

COc1ccc([C@@]23CCC(OC(=O)c4c(C)cc(C)cc4C)=C[C@@H]2N(C)CC3)cc1OC [Compound 356, (3aS,7aS)-3a-(3,4-dimethoxyphenyl)-1-methyl-2,3,3a,4,5,7a-hexahydro-1H-indol-6-yl2,4,6-trimethylbenzoate]
Prodrug (%) remaining, Human Plasma ([1]; 0 h): 100.0% | Prodrug (%) remaining, Human Plasma ([1]; 10 min): >99% | Prodrug (%) remaining, Human Plasma ([1]; 0.5 h): >99% | Prodrug (%) remaining, Human Plasma ([1]; 1 h): >99% | Prodrug (%) remaining, Human Plasma ([1]; 2 h): >99% | Prodrug (%) remaining, Human Plasma ([1]; 4 h): >99% | Prodrug (%) remaining, Rat Plasma ([2]; 0 h): 100.0% | Prodrug (%) remaining, Rat Plasma ([2]; 10 min): >99% | Prodrug (%) remaining, Rat Plasma ([2]; 0.5 h): >99% | Prodrug (%) remaining, Rat Plasma ([2]; 1 h): >99% | Prodrug (%) remaining, Rat Plasma ([2]; 2 h): >99% | Prodrug (%) remaining, Rat Plasma ([2]; 4 h): 95.8%

CCC(CC)C(=O)OC1=C[C@@H]2N(C)CC[C@]2(c2ccc(OC)c(OC)c2)CC1 [Compound 426, (3aS,7aS)-3a-(3,4-dimethoxyphenyl)-1-methyl-2,3,3a,4,5,7a-hexahydro-1H-indol-6-yl2-ethylbutanoate]
Prodrug (%) remaining, Human Plasma ([1]; 0 h): 100.0% | Prodrug (%) remaining, Human Plasma ([1]; 10 min): 87.1% | Prodrug (%) remaining, Human Plasma ([1]; 0.5 h): 80.3% | Prodrug (%) remaining, Human Plasma ([1]; 1 h): 79.2% | Prodrug (%) remaining, Human Plasma ([1]; 2 h): 73.6% | Prodrug (%) remaining, Human Plasma ([1]; 4 h): 66.4% | Prodrug (%) remaining, Rat Plasma ([2]; 0 h): 100.0% | Prodrug (%) remaining, Rat Plasma ([2]; 10 min): 70.2% | Prodrug (%) remaining, Rat Plasma ([2]; 0.5 h): 33.2% | Prodrug (%) remaining, Rat Plasma ([2]; 1 h): 9.5% | Prodrug (%) remaining, Rat Plasma ([2]; 2 h): 0.9% | Prodrug (%) remaining, Rat Plasma ([2]; 4 h): 0.1%

CCCCC(CC)C(=O)OC1=C[C@@H]2N(C)CC[C@]2(c2ccc(OC)c(OC)c2)CC1 (stereo partly drawn) [Compound 401, (3aS,7aS)-3a-(3,4-dimethoxyphenyl)-1-methyl-2,3,3a,4,5,7a-hexahydro-1H-indol-6-yl2-ethylhexanoate]
Prodrug (%) remaining, Human Plasma ([1]; 0 h): 100.0% | Prodrug (%) remaining, Human Plasma ([1]; 10 min): 95.9% | Prodrug (%) remaining, Human Plasma ([1]; 0.5 h): >99% | Prodrug (%) remaining, Human Plasma ([1]; 1 h): 96.6% | Prodrug (%) remaining, Human Plasma ([1]; 2 h): 94.4% | Prodrug (%) remaining, Human Plasma ([1]; 4 h): 93.4% | Prodrug (%) remaining, Rat Plasma ([2]; 0 h): 100.0% | Prodrug (%) remaining, Rat Plasma ([2]; 10 min): 84.5% | Prodrug (%) remaining, Rat Plasma ([2]; 0.5 h): 55.8% | Prodrug (%) remaining, Rat Plasma ([2]; 1 h): 33.8% | Prodrug (%) remaining, Rat Plasma ([2]; 2 h): 16.3% | Prodrug (%) remaining, Rat Plasma ([2]; 4 h): 3.3%

COc1ccc([C@@]23CCC(OC(=O)c4ccc(C(F)(F)F)cc4)=C[C@@H]2N(C)CC3)cc1OC [Compound 310]
Mouse Plasma Prodrug (%) ([3]; 0 min): 100.0% | Mouse Plasma Prodrug (%) ([3]; 15 min): 0.4% | Mouse Plasma Prodrug (%) ([3]; 30 min): 0.1% | Mouse Plasma Prodrug (%) ([3]; 60 min): 0.1% | Mouse Plasma Prodrug (%) ([3]; 120 min): 0.1% | Mouse Plasma Prodrug (%) ([3]; 240 min): 0.1% | Human Plasma Prodrug (%) ([4]; 0 min): 100.0% | Human Plasma Prodrug (%) ([4]; 15 min): 89.9% | Human Plasma Prodrug (%) ([4]; 30 min): 84.5% | Human Plasma Prodrug (%) ([4]; 60 min): 77.3% | Human Plasma Prodrug (%) ([4]; 120 min): 63.4% | Human Plasma Prodrug (%) ([4]; 240 min): 35.1%

CCCCCCCC(=O)OC1=C[C@@H]2N(C)CC[C@]2(c2ccc(OC)c(OC)c2)CC1 [Compound 395, (3aS,7aS)-3a-(3,4-dimethoxyphenyl)-1-methyl-2,3,3a,4,5,7a-hexahydro-1H-indol-6-yl octanoate]
Prodrug (%) remaining, Human Plasma ([1]; 0 h): 100.0% | Prodrug (%) remaining, Human Plasma ([1]; 10 min): 13.9% | Prodrug (%) remaining, Human Plasma ([1]; 0.5 h): 3.5% | Prodrug (%) remaining, Human Plasma ([1]; 1 h): 1.1% | Prodrug (%) remaining, Human Plasma ([1]; 2 h): 0.3% | Prodrug (%) remaining, Human Plasma ([1]; 4 h): 0.1% | Prodrug (%) remaining, Rat Plasma ([2]; 0 h): 100.0% | Prodrug (%) remaining, Rat Plasma ([2]; 10 min): 0.3% | Prodrug (%) remaining, Rat Plasma ([2]; 0.5 h): 0.1% | Prodrug (%) remaining, Rat Plasma ([2]; 1 h): 0.1% | Prodrug (%) remaining, Rat Plasma ([2]; 2 h): 0.1% | Prodrug (%) remaining, Rat Plasma ([2]; 4 h): 0.1%

CCC(C)(CC)C(=O)OC1=C[C@@H]2N(C)CC[C@]2(c2ccc(OC)c(OC)c2)CC1 [Compound 430, (3aS,7aS)-3a-(3,4-dimethoxyphenyl)-1-methyl-2,3,3a,4,5,7a-hexahydro-1H-indol-6-yl2-ethyl-2-methylbutanoate]
Prodrug (%) remaining, Human Plasma ([1]; 0 h): 100.0% | Prodrug (%) remaining, Human Plasma ([1]; 10 min): >99% | Prodrug (%) remaining, Human Plasma ([1]; 0.5 h): >99% | Prodrug (%) remaining, Human Plasma ([1]; 1 h): >99% | Prodrug (%) remaining, Human Plasma ([1]; 2 h): >99% | Prodrug (%) remaining, Human Plasma ([1]; 4 h): 95.9% | Prodrug (%) remaining, Rat Plasma ([2]; 0 h): 100.0% | Prodrug (%) remaining, Rat Plasma ([2]; 10 min): 98.2% | Prodrug (%) remaining, Rat Plasma ([2]; 0.5 h): 98.3% | Prodrug (%) remaining, Rat Plasma ([2]; 1 h): 97.1% | Prodrug (%) remaining, Rat Plasma ([2]; 2 h): 94.1% | Prodrug (%) remaining, Rat Plasma ([2]; 4 h): 92.8%
